Results: patent US5413915A (priority 1991, dated 1995)

Experiments:
rat liver microsomes [1] = type: biochemical; parameters: unit not given here
rat liver microsomes [2] = type: biochemical; parameters: key: Positive: the development of coloration denoted a positive response; Negative: the absence of such coloration denoted a negative response
rat liver microsomes [3] = test: Colorimetric reactions of constituents in bi-layer film (Example 1); type: biochemical
Method: In order to establish the color development behavior of various constituents employed in the invention alone and in several combinations, including two selected test chemicals, seven separate bi-layer film spots were prepared using an otherwise similar gelatin binder medium. The bottom layer of these spots contained reduced pararosaniline (PRA) in all instances except sample 7 wherein the oxidized PRA was substituted to illustrate the coloration of that constituent. An ascorbate salt was selected as typical of a benign test chemical, while benzo(a)pyrene was selected as a representative known carcinogen. The color behavior of the various samples was observed and identified in the following Table 3 together with the compositions of the samples tested.

rat liver microsomes [4] = test: Detection of benzo(a)pyrene on bilayer spot (Example 3); type: biochemical; details: 0.05 mL of 0.5 mg/mL solution on spot
Method: Two spots were prepared by manual streaking on a glass plate. The bottom layer of each spot consisted of 0.15 mL of a 4 mg/mL porcine 300 Bloom gelatin solution containing 1.2 mg/mL pararosaniline (PRA) reduced with solid sodium metabisulfite, spread over an area of 1100-1500 mm^2. After drying in air for two hours, the second layer, containing the following materials, was deposited. 0.05 mL of fresh rat liver microsomes containing approximately 62 mg/mL protein was added to 0.30 mL of a sodium phosphate buffer solution (pH=7.4) containing 4 mg/mL porcine 300 Bloom gelatin, and admixed with 0.02 mL of a solution containing 3 mM MgCl2, 50 mM tris(hydroxymethyl-)aminomethane buffer (pH=7.4) and 15 mM KCl. To this solution was added 10.5 mg solid reduced nicotinamide adenine dinucleotide phosphate (NADPH). 0.25 mL of this material was deposited over an area of 1300-1700 mm^2, completely covering the bottom layer, and was air dried for two hours. […] Within less than five minutes, violet color began to appear, and was well developed within twenty minutes.

microsomes = test: Activity of microsome-containing layers after four day time lapse (Example 4); type: biochemical
Method: At least five spots were prepared on a glass plate according to the procedure in Example 2 above, and dried in air. The spots were translucent but generally colorless during the first day. […] On the third day, two of the remaining spots were "recharged" by a new layer containing fresh NADPH in gelatin. After drying, both spots were essentially colorless. […] Thus, the oxidative activity of microsomes dispersed in gelatin layers persists strongly for at least three days.

[5] = in vivo; cited from earlier work
[6] = in vivo; cited from earlier work; remark: listed apart in the source
[7] = system: benzo(a)pyrene-induced rat liver microsomes; test: Vapor exposure of detection elements in continuous flow chamber (Example 10); type: biochemical
Method: Detection elements of the present invention were prepared in the following manner. 13 mg PRA dissolved in 9.8 mL 0.1M TRISMOPS buffer (pH=7.4) and 3.2 mL ethanol, was bleached with 71 mg solid sodium sulfite. 0.05 mL Aliquots of the leuco-dye solution were plied to sheets of transparency film, and were air dried for one hour. […] After drying in air, the test spots were cut and mounted in 35 mm tissue culture dishes, then stored at -20° C. until ready for use. Detection elements were visually clear, with a slight flesh tone.
Vapor exposures of detection elements to the carcinogen chloromethyl methyl ether (CH3 --O--CH2 Cl) were carried out at ambient temperature,pressure, and humidity conditions in a continuous flow chamber. Air, metered at a flow rate of 1 L/min, was passed through a flask containing 2.0 mL of a rapidly stirred solution of CH3 --O--CH2 Cl in ethanol. After a glass wool plug to remove entrained liquid mists, the loaded air stream entered a 10 mm diameter tube into which the detection elements were mounted, without pre-moistening, parallel to the air flow. Flow conditions were calculated to be laminar (estimated Reynolds number=150) under these conditions. Exposure was conducted for ten minutes, after which the detection elements were removed and analyzed colorimetrically by taping to the sample beam exit slit of a double-beam spectrophotometer, and scanning the absorption spectrum versus an unexposed detection element affixed to the reference beam. At one exemplary test condition, in which the initial solution concentration of CH3 --O--CH2 Cl was 1.2M, 0.4 mL of the starting solution was recovered at the end of the exposure period. Based on both material balance and Raoult's law calculations, a single value of approximately 5200 ppm was determined for the airborne concentration of CH3 --O--CH2 Cl during the exposure. […] NADPH oxidation, equivalent to 0.4 mM or approximately 20% of the total NADPH, occurred during the 10-minute exposure, but ceased thereafter. By contrast, leuco-dye oxidation continued to intensify for some 2-4 hours, to a final level of about 0.5 mM in the detection element.
In similar experiments to FIG. 7, but in which the airborne concentration of CH3 --O--CH2 Cl was adjusted by lowering its solution concentration, color development is proportional to delivered dose, both by direct liquid administration and vapor exposure. […] For a 10-minute exposure, approximately 0.1% of the total CH3 --O--CH2 Cl in the air stream is absorbed and reacted by detection elements mounted parallel to the air flow.

Salmonella typhimurium = details: cited from earlier work
rat liver microsomes [8] = test: Color development in detection elements with different leuco dyes (Table 2); type: biochemical; details: applied dose 10 μmol (formaldehyde 1 μmol); unexposed control also Black
Method: Solutions containing 0.5 mM of the respective dyes in 0.1 M TRIS buffer, pH=7.4 (except for nitro blue tetrazolium, 5.0 mM in 50% ethanolic TRIS, pH=7.4) were bleached with a few crystals of sodium sulfite or sodium dithionite, then plied in 0.02 mL aliquots as test spots on a clear sheet of transparency film. Spontaneous color development in air was noted (Table 2). Subsequently, a suspension of rat liver microsomes containing 1 mM NADPH and 1 mg/mL gelatin in 0.1 M TRIS-MOPS buffer (pH=7.7) was plied in 0.05 mL aliquots over the dried leuco-dye test spots. After drying, color development condition was noted, and the test spots saved for exposure tests to chemical substances (Table 2). Exposures were carried out by layering 0.01 mL of 0.1-1.0 M solutions of test chemical substances onto the test spots, and changes in color noted over time.

microsomal protein = test: In vitro microsomal activation of hydrazine: leuco dye oxidation (Example 9); type: biochemical; details: 0.5 mM hydrazine hydrate
Method: Test of leuco pararosaniline color formation and NADPH redox states, as a function of time after hydrazine addition, was conducted in vitro, and UV-visible absorbance changes monitored. All systems were aerobic (at least 0.2 mM O2). 0.03 mM Pararosaniline was reduced by addition of 0.1 mM sodium sulfite in 0.1 M 10 tris(hydroxymethyl-)aminomethane buffer (pH=7.5), and 0.3 mM NADPH with approximately 0.5 mg/mL microsomal protein (curves indicated with "+m"). At time=0, hydrazine hydrate (pH=7.5) was added to a final concentration of 0.5 mM. […] Approximately 60% of the leuco dye was oxidized (0.02 mM) during the reaction, and roughly twice that amount of […].

rat liver microsomes [9] = test: Color development in detection elements with different leuco dyes (Table 2); type: biochemical
[10] = cited from earlier work
[11] = Oxidation-reduction potentials and redox mediation of dyes and reagents; type: physicochemical
Source text: Diphenylmethane and triphenylmethane dyes of the present invention have midpoint oxidation-reduction ("redox") potentials ("Em7 ") apparently more negative than the Em7 value for NADPH or cytochrome P450 isozymes. […] Specific examples include pararosaniline (E1/2 =-0.75 V) and malachite green (E1/2 =-0.55 V) (W. Kemula and A. Axt (1969) op cit; Also H. O. Willard, L. L. Merritt, and J. A. Dean (1965) Instrumental Methods of Analysis, 4th Ed., pp. 682-685 and 760-763, for a comparison of E1/2 versus Em7. These potentials are too negative for direct measurement in water, as Em7 =-0.42 V for water breakdown to hydrogen.), both of which respond with color development upon microsomal metabolic activation.
Methylene blue is a rapidly mediating redox indicator, and as such is conventionally used for standardization of electrodes and electrochemical systems used in redox potentiometry. Systems containing ascorbate were therefore tightly clamped at a redox potential of +10 to +20 mV, regardless of any interfering influences such as oxygen. […] Spectrum "mb" is that of pure methylene blue in its oxidized state. Curve "oxid" is the spectrum of a mixed solution of methylene blue as in curve "mb" plus the fully oxidized pararosaniline. […]

[12] = no microsomes, no NADPH, bottom PRA-reduced (samples 5, 6)
[13] = 10-minute vapor exposure, approximately 5200 ppm

With `c1ccc2c(c1)cc1ccc3cccc4ccc2c1c34` [Benzo(a)pyrene] the “Detector Response, threshold dose” value (rat liver microsomes [1]) was 0.01, the “Invention Response” value (rat liver microsomes [2]) was “Positive” and the “COLOR REACTION” value (rat liver microsomes [3]; [12]) was “No”. The “COLOR REACTION” value (rat liver microsomes [3]; top layer with rat liver microsomes and NADPH, bottom PRA-reduced (sample 4)) was “Yes”, the “Time until violet color began to appear” value (rat liver microsomes [4]) was “less than five” and the “Time until violet color well developed” value (rat liver microsomes [4]) was “twenty”. The “Color developed on spot” value (microsomes; fourth day, NADPH-recharged spot) was “strong violet color”, the “Color developed on spot” value (microsomes; fourth day, not recharged) was “strong violet color” and the “Color developed on spot” value (microsomes; second day, not recharged) was “strong violet color”. The “Color developed on spot” value (microsomes; third day, recharged with fresh NADPH) was “deep purple color”, the “Carcinogenic Status” value [5] was “Positive” and the “Tumorigen Activity” value [5] was “+”. For the same compound, the “Teratogen Activity” value [6] was “+”.
For `COCCl` [Chloromethyl methyl ether], the “Detector Response, threshold dose” value (rat liver microsomes [1]) was 0.1, the “NADPH oxidation in detection element” value [7, 13] was 0.4 mM and the “NADPH oxidation, share of the total NADPH” value [7, 13] was “approximately 20%”. The “Time over which leuco-dye oxidation continued to intensify” value ([7]; after 10-minute exposure) was 2 to 4 h, the “Leuco-dye oxidation, final level in the detection element” value ([7]; after 10-minute exposure, approximately 5200 ppm) was “about 0.5 mM” and the Mutagenicity (Salmonella typhimurium) was “+”. The “Tumorigen Activity” value [5] was “+” and the “Teratogen Activity” value [6] was “+”.
With `NN` [Hydrazine] the “Detector Response, threshold dose” value (rat liver microsomes [1]) was 0.1-20, the “New Color Development, NBTZ” value (rat liver microsomes [8]) was “Black” and the “Leuco dye oxidized during the reaction” value (microsomal protein) was 0.02 mM. For the same compound, the “Time to asymptote of leuco-dye oxidation and NADPH reduction” value (microsomal protein) was 2.0 to 2.5 h, the “Leuco dye oxidized during the reaction” value (microsomal protein; 0.03 mM PRA, 0.3 mM NADPH, microsomes) was “Approximately 60%” and the “Gain of sensitivity, 50%:50% BaP-induced and uninduced microsomes versus uninduced” value (cytochrome P450IA1) was “approximately 10 fold”. The “Loss of sensitivity, BNF-induced versus uninduced microsomes” value (cytochrome P450IA1) was 20-50 fold, the “Color of detection elements with leuco methylene blue in combination with pararosaniline” value (rat liver microsomes [9]; exposure to hydrazine) was “magenta color” and the “Color of detection elements using leuco malachite green” value (rat liver microsomes [9]; exposure to hydrazine solutions, separate tests) was “visually detectable green color”. For the same compound, the Em7 ([10]; midpoint redox potential) was -0.73 V, the Mutagenicity (Salmonella typhimurium) was “+” and the “Tumorigen Activity” value [5] was “+”. The “Teratogen Activity” value [6] was “+”.
For `O=C1O[C@H]([C@@H](O)CO)C(O)=C1O` [free ascorbic acid, ascorbic acid], the “COLOR REACTION” value (rat liver microsomes [3]; [12]) was “color reaction occurs”.
For `N=C1C=CC(=C(c2ccc(N)cc2)c2ccc(N)cc2)C=C1` [pararosaniline], the “standard oxidation-reduction potential (Em7)” value ([11]; aqueous media, from FIG. 1 data) is listed as under -0.1 V, the “Time to equilibrate in a redox voltage-clamped system” value ([11]; ascorbate / methylene blue clamped system) is listed as “two” and the E1/2 ([10]; literature (Kemula and Axt)) is listed as -0.75 V.
